We go through one compound from patent publication US5932717A, “Methods of obtaining DNA-RNA hybrids from sturgeon milt” (priority 1994, dated 1999).

The subject of data set [1] is MT-4 cell. The following applies: MT-4, 5 ug/ml.
Protocol: (§1) The cells.--A continuous lymphoblast line of MT-4 cells was used in the study. The cells were propagated in a concentration of 0.2×10^6 cells/ml in RPMI-1640 medium with 15% fetal calf serum, 300 μg/ml L-glutamine and 100 μg/ml gentamycine. The cells were cultivated in suspension in 24-well plates of NUNCLON Company.
(§2) The viability of the cells was determined by staining with 0.4% trypan blue.
(§3) Cytotoxicity of the preparations was determined in 24-well plastic plates. Each well of the panel was filled with 1 ml of cell suspension in a concentration 0.2×10^6 cells/ml after which to different wells various doses of chemopreparations were added: 1600, 1000, and 400 μg/ml. After treatment of the cells with the chemopreparations the panels with the cells were placed into a thermostat and incubated at 37° C. in an atmosphere of 5% CO2 and 98% humidity for 3-5 days. At the end of this term the results were read by the number of live and dead cells in the individual wells of the plate.
A short description of data set [2]: in vitro. The following applies: human, mt-4 cells.
Protocol: as §1, §2, §3

Each structure is given as a SMILES string.

For `Cc1cn([C@H]2C[C@H](N=[N+]=[N-])[C@@H](CO)O2)c(=O)[nH]c1=O` [Azidothymidine, azidothymidine], in data set [1] (cell control 0.56), the “Cell concentration per ml × 10^6” value amounted to 0.16 per ml × 10^6. Also, the Proliferation index in data set [1] (cell control 2.80) is 1.0. In data set [2], the viability (in general, a read-out of living cells in per cent, often relative to untreated cells) amounted to 17.5%.
